Reference: ChEMBL document CHEMBL1158312, “Cytotoxic triterpenes from a marine sponge, Stelletta sp” (J Nat Prod, 1996)
Active and inactive are the calls of the source.

How the values were obtained:
[1] = molecular target: T1, Retinoic acid receptor RXR-alpha (Mus musculus) (UniProt P28700); experiment: Antagonist activity at mouse RXRalpha assessed as inhibition of 9-cis-retinoic acid-induced response by differential proteolytic sensitivity assay; assay type: functional
T1 sequence (whole entry): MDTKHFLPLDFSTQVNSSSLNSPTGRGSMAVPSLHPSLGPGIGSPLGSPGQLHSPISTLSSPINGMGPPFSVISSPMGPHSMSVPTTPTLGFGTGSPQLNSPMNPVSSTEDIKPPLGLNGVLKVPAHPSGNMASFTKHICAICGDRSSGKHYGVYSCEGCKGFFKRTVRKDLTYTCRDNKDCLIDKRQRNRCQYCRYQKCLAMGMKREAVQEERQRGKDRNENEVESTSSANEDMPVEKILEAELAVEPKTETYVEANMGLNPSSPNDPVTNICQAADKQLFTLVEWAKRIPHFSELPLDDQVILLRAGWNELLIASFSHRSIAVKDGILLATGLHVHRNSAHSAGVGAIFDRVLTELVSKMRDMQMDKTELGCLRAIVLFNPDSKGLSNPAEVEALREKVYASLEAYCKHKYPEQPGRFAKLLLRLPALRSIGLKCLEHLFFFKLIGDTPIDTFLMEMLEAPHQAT

[2] = molecular target: T1, Retinoic acid receptor RXR-alpha (Mus musculus); experiment: Binding affinity to mouse RXRalpha assessed as induction of receptor conformational change at 1 uM
[3] = molecular target: T2, Retinoic acid receptor RXR-alpha (Homo sapiens) (UniProt P19793); experiment: Binding affinity to human RXRalpha assessed as induction of receptor conformational change at 1 uM
T2 sequence (whole entry): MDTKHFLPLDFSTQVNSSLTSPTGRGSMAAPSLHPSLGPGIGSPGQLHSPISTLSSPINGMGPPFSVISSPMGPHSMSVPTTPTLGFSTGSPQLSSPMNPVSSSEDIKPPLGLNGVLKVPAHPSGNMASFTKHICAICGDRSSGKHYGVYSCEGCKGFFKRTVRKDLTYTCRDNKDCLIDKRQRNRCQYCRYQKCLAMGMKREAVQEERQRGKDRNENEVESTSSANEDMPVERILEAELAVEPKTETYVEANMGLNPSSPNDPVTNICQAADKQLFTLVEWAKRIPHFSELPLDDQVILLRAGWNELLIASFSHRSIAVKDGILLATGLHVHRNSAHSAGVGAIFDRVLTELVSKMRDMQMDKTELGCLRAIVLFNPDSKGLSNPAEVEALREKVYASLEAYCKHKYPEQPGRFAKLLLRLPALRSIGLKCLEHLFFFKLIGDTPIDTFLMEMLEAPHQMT

Measured: Activity

CC(/C=C/C=C(\C)c1ccc(C)c(=O)o1)=C1/C(=O)C[C@H]2[C@@]3(C)CCC(=O)C(C)(C)[C@@H]3CC[C@]12C
inactive: all assays above

C/C(=C/C=C/C(C)=C/C=C/C(C)=C1\C(=O)C[C@H]2[C@@]3(C)CCC(=O)C(C)(C)[C@@H]3CC[C@]12C)C(=O)O
inactive: all assays above
